Laboratory results published in patent EP4692079A1, “CYP11A1 INHIBITOR AND USE THEREOF” (priority 2023, dated 2024).
Like-named read-outs stand apart in the source and are kept apart here.

Columns and labels:
[1] = tested on: testosterone level in NCI-H295R cells; test: cells; format: cell-based; settings: Homo sapiens, NCI-H295R, 72 h; for IC50: read-out: Testosterone level in H295R (Elisa) IC50 nM
Method: The purpose of the experimental study was intended to detect the testosterone level in the NCI-H295R cells by adopting the Enzyme linked immunosorbent assay (ELISA), so as to evaluate the inhibitory effects of the compounds on the testosterone level in the NCI-H295R cells.
The H295R cells were purchased from ATCC, the cell complete medium contained DMEM: F12+ 10% FBS +0.00625 mg/ml insulin +0.00625 mg/ml transferrin+6.25 ng/ml selenium +1.25 mg/ml BSA+0.00535 mg/ml linoleic acid, and the cells were cultured in a 37°C, 5% CO2 incubator. The cells in the exponential growth phase were collected, and cultured in a cytokine-free medium (phenol red 1640-free +1% PS+10% css FBS+1.25 mg/ml BSA +0.00625 mg/ml insulin + 0.00625 mg/ml transferrin+6.25 ng/ml selenium+0.00535 mg/ml linoleic acid) for three days. The cells in the exponential growth phase were collected on the third day. The cell suspension was adjusted with a cytokine-free medium to a corresponding concentration and plated at 60000 cells/well, with the volume being 90 µL/well. Subsequently, 10 µL of the compounds at different concentrations was added and the plate was incubated in a CO2 incubator for three days. After the incubation was completed, according to the operation instructions for testosterone Elisa kit (Beyotime, PT872), 50 µL of the cell culture supernatant was collected from each well and centrifuged at 500 g for 5 min at room temperature and then the resulting supernatant was collected. The samples were added to the corresponding wells at 25 µl/well, and then formulated horseradish peroxidase labelled testosterone was added at 75 µl/well. The mixture was fully mixed for 10 seconds. The reaction wells were sealed with a plate-sealing film (white) and the mixture was incubated at room temperature in the dark for 120 min. The plate was washed three times with a volume of 300 µl per well, and then placed onto thick absorbent paper and dried. Chromogenic reagent TMB solution was added at 100 µl/well. The reaction wells were sealed with a plate-sealing film (white) and the mixture was incubated at room temperature in the dark for 15-20 min. Subsequently, a termination solution was added at 50 µl/well, and after the mixture was fully mixed, the absorbance value OD450 was immediately measured. The absorbance readings were processed using Graphpad Prim 8.0 software and S-shaped concentration curves were plotted and the IC50 values were calculated using a four-parameter non-linear regression model.

[2] = tested on: pregnenolone level in NCI-H295R cells; test: cells; format: cell-based; settings: Homo sapiens, 72 h; for inhibition at 0.1 µM: read-out: Pregnenolone level in H295R (Elisa) inh.% 100 nM; for inhibition at 1 µM: read-out: Pregnenolone level in H295R (Elisa) inh.% 1000 nM; for IC50: read-out: Pregnenolone level in H295R (Elisa) IC50 nM
Method: 2. The purpose of the experimental study was intended to detect the pregnenolone level in the NCI-H295R cells by adopting the Enzyme linked immunosorbent assay (ELISA), so as to evaluate the inhibitory effects of the compounds on the pregnenolone level in the NCI-H295R cells.
The H295R cells were purchased from ATCC (CRL-2128), the cell complete medium contained DMEM: F12+ 10% FBS +0.00625 mg/ml insulin+0.00625 mg/mL transferrin+6.25 ng/mL selenium+1.25 mg/mL BSA+0.00535 mg/mL linoleic acid, and the cells were cultured in a 37°C, 5% CO2 incubator. The cells in the exponential growth phase were collected, and cultured in a cytokine-free medium (phenol red 1640-free +1% PS+10% css FBS+1.25 mg/mL BSA +0.00625 mg/mL insulin+0.00625 mg/mL transferrin+6.25 ng/mL selenium+0.00535 mg/mL linoleic acid) for three days. The cells in the exponential growth phase were collected on the third day. The cell suspension was adjusted with a cytokine-free medium to a corresponding concentration and plated at 60000 cells/well, with the volume being 90 µL/well. Subsequently, 10 µL of the compounds at different concentrations was added and the plate was incubated in a CO2 incubator for three days. After the incubation was completed, the cell culture supernatant was collected and centrifuged at 2°C-8°C at 800×g for 10 min. The resulting supernatant was collected. Determination was carried out according to the operation instructions for pregnenolone Elisa kit (Antibodies-A73791), and the OD450 signal was read.
2.1 Standard curve plotting. The standard concentration was taken as the abscissa and the OD450 value as the ordinate, the coordinate points of various standards were connected with a smooth line and a curve was fitted according to the four parameter logistic (4-PL) method.
2.2 Sample quantification: The corresponding concentration (CONC) of testosterone/pregnenolone in the sample was calculated using the absorbance value of the sample and the standard curve. According to formula (1), the inhibition rate of the compound at various concentrations was calculated, and S-shaped concentration curves were plotted and the IC50 values (i.e., concentration of the compound at which the inhibition rate was 50%) were calculated using a three parameter non-linear regression model in Graphpad Prim 8.0 software. CONC cpd was the concentration of the treated group, and CONC ctrl was the average concentration value of the solvent control group. Inhibition rate% = 100%−CONCcpd /CONCctrl × 100% [formula] Table 3 Inhibitory effects of compounds on pregnenolone level in NCI-H295R cells

[3] = Pharmacokinetic test in mice; format: in vivo; settings: mouse, male ICR mice, plasma; for Vd: read-out: Vdss
Method: 4.1. Experimental animals: Male ICR mice, 20-25 g, 6 mice/compound, were purchased from Chengdu Dossy Experimental Animals Co., Ltd.
4.2 Experimental design: on the day of the experiment, the ICR mice were randomly grouped according to their body weights. […] Table 6 Administration information
Before and after administration, 0.06 mL of blood was taken from the orbit under isoflurane anaesthesia and placed in an EDTAK2 centrifuge tube. The tube was centrifuged at 5000 rpm at 4°C for 10 min, and plasma was collected. […] Before analysis and detection, all samples were stored at -80°C, and the samples were quantitatively analysed by LC-MS/MS.

[4] = Pharmacokinetic test in rats; format: in vivo; settings: rat, male SD rats, plasma; for Vd: read-out: Vdss
Method: 3.1 Experimental animals: Male SD rats (about 220 g, 6-8 weeks old, 6 rats/compound) were purchased from Chengdu Dossy Experimental Animals Co., Ltd.
3.2 Experimental design: On the day of the experiment, the SD rats were randomly grouped by body weight. […] Table 4 Administration information
Before and after the administration, 0.1 ml of blood was taken from the orbit of the animals under isoflurane anaesthesia and placed in an EDTAK2 centrifuge tube. The blood was centrifuged at 5000 rpm and 4°C for 10 min to collect plasma. […] Before analysis and detection, all samples were stored at -80°C. Table 5 Pharmacokinetic parameters of test compounds in plasma of rats

[5] = read-out: Testosterone level in H295R (Elisa) inh.% 100 nM, 100 nM compound, NCI-H295R cells, three days incubation
[6] = read-out: Testosterone level in H295R (Elisa) inh.% 1000 nM, 1000 nM compound, NCI-H295R cells, three days incubation
[7] = read-out: Testosterone level in H295R (Elisa) inh.% 100 nM
[8] = read-out: Testosterone level in H295R (Elisa) inh.% 1000 nM
[9] = po, intragastric administration (10 mg/kg)
[10] = intravenous administration (2.5 mg/kg)

| Compound | IC50 [1] | inhibition at 0.1 µM [1, 5] | inhibition at 1 µM [1, 6] | inhibition at 0.1 µM [2] | inhibition at 1 µM [2] | inhibition at 0.1 µM [1, 7] | inhibition at 1 µM [1, 8] | IC50 [2] | AUC(0-t) [3, 9] | half-life [3, 9] | AUC(0-t) [3, 10] | clearance [3, 10] | half-life [3, 10] | Vd [3, 10] | AUC(0-t) [4, 9] | half-life [4, 9] | AUC(0-t) [4, 10] | clearance [4, 10] | half-life [4, 10] | Vd [4, 10] |
| --- | --- | --- | --- | --- | --- | --- | --- | --- | --- | --- | --- | --- | --- | --- | --- | --- | --- | --- | --- | --- |
| O=C(OC1CC1)N1CCC(COc2coc(CN3Cc4ccc(OC5CC5)cc4C3)cc2=O)CC1 [Compound 27] | 50.1 nM | 78% | 68% | 65.5% | 67.5% | – | – | – | – | – | – | – | – | – | – | – | – | – | – | – |
| O=C(N[C@H]1CC[C@H](/C=C/c2coc(CN3Cc4ccc(C(F)(F)F)cc4C3)cc2=O)CC1)[C@H]1CC1(F)F [Compound 90] | 73 nM | – | – | 43.4% | 67% | 80% | 85% | 119 nM | 40600 ng·h/mL | 6.36 h | 10600 ng·h/mL | 3.67 mL/min/kg | 6.73 h | 1.73 L/kg | – | – | – | – | – | – |
| O=C(N[C@H]1CC[C@H](CCc2coc(CN3Cc4ccc(C(F)(F)F)cc4C3)cc2=O)CC1)C1CC(F)(F)C1 [Compound 95] | – | 57% | 81% | 50% | 66% | – | – | – | – | – | – | – | – | – | – | – | – | – | – | – |
| O=C(N[C@H]1CC[C@@H](COc2coc(CN3Cc4ccc(C(F)(F)F)cc4C3)cc2=O)CC1)C1COC1 [Compound 54] | – | – | – | – | – | 53.2% | 72.2% | – | 28100 ng·h/mL | 2.97 h | 5870 ng·h/mL | 7.19 mL/min/kg | 2.98 h | 1.17 L/kg | – | – | – | – | – | – |
| [2H]C([2H])([2H])C(=O)N[C@H]1CC[C@H](COc2coc(CN3Cc4ccc(C(F)(F)F)cc4C3)cc2=O)CC1 [Compound 33] | 68 nM | – | – | – | – | – | – | – | 8430 ng·h/mL | 2.45 h | 2090 ng·h/mL | 19.9 mL/min/kg | 0.908 h | 1.19 L/kg | 19600 ng·h/mL | 2.04 h | – | – | – | – |
| O=C(N[C@H]1CC[C@H](/C=C/c2coc(CN3Cc4ccc(C(F)(F)F)cc4C3)cc2=O)CC1)[C@@H]1CC1(F)F [Compound 89] | – | – | – | 41.6% | 64.9% | 75% | 87% | – | 52500 ng·h/mL | 8.11 h | 8460 ng·h/mL | 4.9 mL/min/kg | 5.1 h | 1.63 L/kg | – | – | – | – | – | – |
| COC1CN(CC(=O)N2CCC(/C=C/c3coc(CN4Cc5ccc(C(F)(F)F)cc5C4)cc3=O)CC2)C1 [Compound 18] | 100 nM | 80.8% | 92.5% | 40.7% | 50.5% | – | – | – | – | – | – | – | – | – | – | – | – | – | – | – |
| Cc1nc(C(=O)N[C@H]2CC[C@H](/C=C/c3coc(CN4Cc5ccc(C(F)(F)F)cc5C4)cc3=O)CC2)co1 [Compound 84] | – | – | – | – | – | – | – | 121 nM | – | – | – | – | – | – | – | – | – | – | – | – |
| Cn1cc(C(=O)N[C@H]2CC[C@H](COc3coc(CN4Cc5ccc(C(F)(F)F)cc5C4)cc3=O)CC2)cn1 [Compound 35] | – | – | – | – | – | 72.8% | 75.5% | – | 24200 ng·h/mL | 2.85 h | 12500 ng·h/mL | 3.34 mL/min/kg | 2.68 h | 0.557 L/kg | 18300 ng·h/mL | 2.84 h | 9100 ng·h/mL | 4.66 mL/min/kg | 2.71 h | 0.788 L/kg |
| O=C(N[C@H]1CC[C@H](COc2coc(CN3Cc4ccc(C(F)(F)F)cc4C3)cc2=O)CC1)C1COC1 [Compound 63] | – | – | – | – | – | 64% | 75% | – | – | – | – | – | – | – | 19100 ng·h/mL | 2.18 h | – | – | – | – |
| [2H]C([2H])([2H])C(=O)N[C@H]1CC[C@H](/C=C/c2coc(CN3Cc4ccc(C(F)(F)F)cc4C3)cc2=O)CC1 [Compound 80] | – | 71% | 84% | 38.1% | 59.1% | – | – | 190 nM | – | – | – | – | – | – | – | – | – | – | – | – |
| O=c1cc(CN2Cc3ccc(C(F)(F)F)cc3C2)occ1/C=C/[C@H]1CC[C@H](NC(=O)[C@H]2C[C@@H](F)C2)CC1 [Compound 100] | – | – | – | – | – | 70% | 85% | – | – | – | – | – | – | – | 17500 ng·h/mL | 2.29 h | 4660 ng·h/mL | 8.86 mL/min/kg | 1.8 h | 1.29 L/kg |
| CS(=O)(=O)N1CC(OC(=O)N[C@H]2CC[C@H](COc3coc(CN4Cc5ccc(C(F)(F)F)cc5C4)cc3=O)CC2)C1 [Compound 64] | – | – | – | – | – | 73% | 75% | – | – | – | – | – | – | – | 10100 ng·h/mL | 2.92 h | 3440 ng·h/mL | 12.1 mL/min/kg | 2.65 h | 2.09 L/kg |
| C=C1CC(C(=O)N[C@H]2CC[C@H](/C=C/c3coc(CN4Cc5ccc(C(F)(F)F)cc5C4)cc3=O)CC2)C1 [Compound 116] | – | 60% | 66% | 48% | 75% | – | – | – | – | – | – | – | – | – | – | – | – | – | – | – |
| C/C(=C\[C@H]1CC[C@H](NC(=O)c2cnn(C)c2)CC1)c1coc(CN2Cc3ccc(C(F)(F)F)cc3C2)cc1=O [Compound 107] | – | – | – | – | – | 60% | 78% | – | – | – | – | – | – | – | 22500 ng·h/mL | 4.15 h | 6030 ng·h/mL | 6.96 mL/min/kg | 3.39 h | 1.55 L/kg |
